Source: article PMC9599717, “The Multicellular Effects of VDAC1 N-Terminal-Derived Peptide” (Biomolecules, 2022)

Legend:
G-actin = biological target: T1, G-actin (Oryctolagus cuniculus, UniProt P68135); assay: Pyrenyl-actin G-actin polymerization assay; type: biochemical, rabbit; conditions: 16.7 µM peptide, 2 μM MgATP–G-actin with 10% pyrenyl-labeled actin, 22 °C
T1 construct: Actin was purified from rabbit muscle as CaATP–G-actin complex; from tissue; host or cells: rabbit muscle
Experimental: Actin was purified from rabbit muscle as CaATP–G-actin complex according to the published method using Supredex S200 (Cytiva Lifesciences) size exclusion chromatography in a buffer G composed of 5 mM Tris/HCl, pH 7.8, 0.2 mM CaCl2, 0.2 mM ATP, 0.5 mM dithiothreitol, and 0.01% NaN3. The purified G-actin was fluorescently labeled on Cys-374 with N-(1-pyrene) iodoacetamide (Invitrogene) to a molar ratio of 0.8 to 1.0 pyrene/G-actin, as described previously. CaATP–G-actin was converted into MgATP–G-actin by incubation on ice for 20 min with 20 μM MgCl2 and 0.2 mM EGTA to 10 μM and was used within 1 h.
G-actin polymerization was monitored by following the increase in the fluorescence of 10% pyrenyl-labeled actin. […] Fluorescence measurements were carried out at 22 °C in a Horiba/Jobin Yvon FluoroLog Spectrofluorometer using excitation and emission wavelengths of 365 and 407 nm, respectively. Data were analyzed using GraphPad Prism4.1.681 for Windows software (San Diego, CA, USA).
Figure 5 D-Δ(1-18)N-Ter-Antp altered actin filament organization (A,B) U-87MG cells were cultured and incubated for 24 h with D-Δ(1-18)N-Ter-Antp (10 µM). Cells were stained for actin using Phalloidin-488 and visualized by confocal microscopy (A) and quantified for Phalloidin-488 staining intensity (B). […] (D) Actin interaction with VDAC1 analyzed using the MST method. […]

U-87MG cells = assay: Cell senescence assay (β-galactosidase activity); type: cell-based, human; conditions: 12 h / 6 h (supplementary method)
Experimental: Figure 3 The D-Δ(1-18)N-Ter-Antp peptide induced autophagy and cellular senescence and altered the expression of apoptosis-related proteins. (A,B) U-87MG cells were treated with the indicated concentrations of D-Δ(1-18)N-Ter-Antp peptide for 12 h and then were subjected to immunoblotting for caspase-9, AIF, Bcl-xL, Bcl-2, and Bax and the relative expression level was quantified (B). (C,D) U-87MG cells were treated with the indicated concentrations of D-Δ(1-18)N-Ter-Antp peptide for 12 h and then subjected to immunoblotting for the autophagy markers LC3-I and LC3-II (C) and LC3-II quantification (D). (E,F) U-87MG cells were treated with the indicated concentrations of D-Δ(1-18)N-Ter-Antp peptide for 12 h and then subjected to β-gal activity (blue). Mouse embryonic fibroblast cells at passage 10 (MEF-P10) served as a positive control of senescent cells. Quantification of β-gal staining intensity (F). Data are presented as the mean ± SD, n = 3, * p < 0.05; ** p < 0.01; *** p < 0.001 versus control group. NS, non-specific. […]
color was read in a spectrophotometer at 680 nm. […]
U-87MG cells were treated with D-Δ(1-18)N-Ter-Antp peptide in serum-free DMEM media for 6 h at 37℃, incubated with acridine orange (1 μg/ml) for 15 min, visualized by fluorescence microscopy (Olympus LX2 - KSP, Tokyo, Japan), and images were captured with a CCD camera. About 200 cells were counted for each […]

“19-FTKGYGFGL-26- RQIKIWFQNRRMKWKK [D-Δ(1-18)N-Ter-Antp]” was tested, and the “Effect on G-actin polymerization” value (G-actin) was “inhibition of the actin filament assembly” and the “Cellular senescence, β-galactosidase activity” value (U-87MG cells) was “showed cellular senescence”.
